The structures appear in SMILES notation. Structures can show the parent of a compound that is named as a salt.

The target in this assay is T1, Porcine DPP-IV (Sus scrofa, UniProt P22411).
T1 construct: purchased Sigma-Aldrich Germany
T1 sequence (P22411 whole entry): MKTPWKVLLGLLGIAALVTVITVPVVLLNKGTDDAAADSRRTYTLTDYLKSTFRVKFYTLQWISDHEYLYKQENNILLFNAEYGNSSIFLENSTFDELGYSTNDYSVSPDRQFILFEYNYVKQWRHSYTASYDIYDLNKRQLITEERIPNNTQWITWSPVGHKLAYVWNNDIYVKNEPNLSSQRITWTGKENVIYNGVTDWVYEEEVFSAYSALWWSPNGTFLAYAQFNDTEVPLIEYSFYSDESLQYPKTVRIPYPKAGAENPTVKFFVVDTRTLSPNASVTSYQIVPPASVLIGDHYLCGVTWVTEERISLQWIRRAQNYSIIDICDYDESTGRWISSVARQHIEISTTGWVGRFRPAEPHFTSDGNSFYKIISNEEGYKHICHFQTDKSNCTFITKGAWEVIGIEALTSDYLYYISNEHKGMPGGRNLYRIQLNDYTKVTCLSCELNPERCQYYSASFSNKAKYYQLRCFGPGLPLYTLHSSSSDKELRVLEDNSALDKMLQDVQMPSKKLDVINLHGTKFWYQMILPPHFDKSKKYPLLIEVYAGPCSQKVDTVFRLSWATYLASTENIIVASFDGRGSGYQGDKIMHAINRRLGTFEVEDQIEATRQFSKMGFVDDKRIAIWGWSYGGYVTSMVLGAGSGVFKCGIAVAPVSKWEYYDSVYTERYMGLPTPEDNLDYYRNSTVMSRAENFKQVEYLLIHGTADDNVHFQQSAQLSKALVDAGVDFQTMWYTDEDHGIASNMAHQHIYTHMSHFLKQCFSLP
Description: Assay of DPP-IV enzyme inhibitory activity (spectrophotometric, Gly-Pro-pNA cleavage). The class given is biochemical. The following applies: Porcine DPP-IV, Gly-Pro-pNA substrate, 30° C.; mean ± SD of three experiments except compound Nos. 133 & 139; read-out: IC50 (μM) Mean ± SD, inhibitory activity on DPP-IV enzyme activity. The method, then: Assay of DPP-IV Enzyme Inhibitory Activity.
The assay method is a modified method (as described by Welch et al, 1998) based on spectrophotometric determination of the product formed by penultimate proline cleaving activity of the enzyme.
Assay protocol involves incubation of the enzyme dipeptidyl peptidase IV with the test substance at 30° C. for 30 min followed by addition of this reaction mixture to the substrate Gly-Pro-pNA that was equilibrated at 30° C. for 2 min. The enzyme cleaves the substrate at penultimate proline and releases p-nitroanilide, the optical density of which is measured at 385 nm. The formation of p-nitroanilide will be reduced in the presence of inhibitor. […] The activity of molecule is expressed in terms of % inhibition. At least three different concentrations were tried out for each of the test substances. The percentage inhibitions for each of the concentrations were plotted and an IC50 of the test compound was worked out. The enzyme inhibitory activity of different test compounds were compared based on the IC50 values.
The percentage inhibition % I, is calculated using the formula:
% I=[(1−vi/v0)]*100 where vi and v0 are the Vmax values with and without the test substance, respectively.
Substrate solution: 0.5 mM in 45 mM phosphate buffer
Substrate used: Gly-Pro-p-nitroanilide (Source: Sigma-Aldrich Co. Germany)
3.288 mg substrate in 1 ml 45 mM phosphate buffer was prepared as stock solution. 0.25 ml of this stock solution was diluted to 5 ml to get 0.5 mM substrate solution (90 μl to be added in each well). The stock solution of the substrate was used within three days of preparation.
Enzyme solution: Porcine DPP-IV (Sigma-Aldrich Germany) was used throughout the study. 0.4 mU in 80 μl of Tris. HCl buffer was prepared. Fresh solutions were prepared everyday for the assays.
Various concentrations of inhibitor were used: 0.391 μM, 0.781 μM, and 3.125 μM. Solutions of inhibitor were prepared and used on the same day.
280 μl of enzyme solution (0.4-mU/80 μl in Tris HCl buffer) was added to the eppendorf containing 70 μl solution of inhibitor or vehicle and mixed. This reaction mixture was incubated for 30 min at 30° C. The 96 well plate containing substrate solution was thermally equilibrated in the spectrophotometer for 2 min at 30° C. Later 100 μl of the enzyme-inhibitor pre-incubation solution was added to respective wells in a 96 well plate. Each concentration of the inhibitor was tested in triplicates.
The rate of change in UV absorbance (in presence of various concentrations of the inhibitor) was measured at 385 nm, with respect to wells containing only 0.5 mM substrate in 45 mM phosphate buffer as blank at every 10 min for 2 hours after adding enzyme-inhibitor mixture to wells containing substrate solution.
For `N#CC1CSCN1C(=O)CNN` (centres unmarked) [Compound No. 15, 3-[1-Oxo-2-(1-hydrazino)]ethyl-4-cyano thiazolidine trifluoroacetate], the IC50 was 41.9 ± 11.6 µM.

Regarding `N#CC1CSCN1CC(=O)NN(CC(=O)N1CCCC1C#N)C1CCCCC1` (centres unmarked) [Compound No. 50], the IC50 came to 60.1 ± 5.5 µM.

As for `Cc1nc(NC(=O)CN2CCC(N(N)CC(=O)N3CSCC3C#N)CC2)sc1C` (centres unmarked) [compound 145, trihydrochloride], the IC50 worked out at 0.715 ± 0.06 µM.

Take `CC(C)(C)C1CCC(N(N)CC(=O)N2CSCC2C#N)CC1` (centres unmarked) [Compound No. 49, 3-[1-Oxo-2-(1-(4-tertbutylcyclohexyl)hydrazino)]ethyl-4-cyanothiazolidine trifluoroacetate]: the IC50 came out at 1.04 ± 0.25 µM.

With `N#CC1CSCN1C(=O)CN(N)C12CC3CC(CC(C3)C1)C2` (centres unmarked) [Compound No. 75, 3-[1-Oxo-2-(1-(1-adamantanyl) hydrazino)]ethyl-4-cyanothiazolidine trifluoroacetate], the IC50 was 0.31 ± 0.05 µM.

As to `N#Cc1cc(CN2CCC(N(N)CC(=O)N3CSCC3C#N)CC2)ccc1-c1ccccc1` (centres unmarked) [Compound No. 109, 3-[1-oxo-2-[1-(1-(2-cyanobiphenyl-4-yl)methyl)piperidine-4-yl]hydrazino]ethyl-4-cyanothiazolidine bis-trifluoroacetate], the IC50 was found to be 1.02 ± 0.14 µM.

With `N#CC1CSCN1C(=O)CN(N)C1CCN(Cc2cccnc2)CC1` (centres unmarked) [Compound No. 57, 3-[1-Oxo-2-(1-(1-(3-pyridinemethyl)-4-piperidinyl) hydrazino)]ethyl-4-cyanothiazolidine tris trifluoroacetate], the IC50 is 4.77 ± 0.41 µM.

As to `CC1CCC(NN(C)CC(=O)N2CSCC2C#N)CC1` (centres unmarked) [Compound No. 69, 3-[1-Oxo-2-(1-methyl-2-(4-methylcyclohexyl) hydrazino)]ethyl-4-cyanothiazolidine], the IC50 was 69 ± 10.1 µM.

For the compound `N#CC1CCCN1C(=O)CN(N)C1CCN(CC(=O)Nc2ccc(Cl)cn2)CC1` (centres unmarked) [compound 124, 3-[1-oxo-2-(1-(1-(2-oxo-2-(5-chloropyridin-2-yl)aminoethyl)piperidin-4-yl))hydrazino]ethyl-2-cyanopyrrolidine, tris-trifluoroacetate], the IC50 was 3.7 ± 0.5 µM.

Regarding `N#CC1CSCN1C(=O)CN(N)C1CCN(C(=O)CN2CCOCC2)CC1` (centres unmarked) [Compound No. 110, 3-[1-oxo-2-[1-(1-(1-oxo-2-(morpholin-4-yl)ethyl)piperidin-4-yl)]hydrazino]ethyl-4-cyanothiazolidine bis-trifluoroacetate], the IC50 was found to be 0.83 ± 0.05 µM.

Take `N#CC1CSCN1C(=O)CN(N)C1CCN(Cc2ccc([N+](=O)[O-])cc2)CC1` (centres unmarked) [Compound No. 61, 3-[1-Oxo-2-(1-(1-(4-nitrophenylmethyl)-piperidin-4-yl) hydrazino]ethyl-4-cyanothiazolidine trifluoroacetate]: the IC50 was determined as 0.7 ± 0.03 µM.

As to `CC1CCC(CN(N)CC(=O)N2CCCC2C#N)CC1` (centres unmarked) [Compound No. 39, 1-[1-Oxo-2-(1-(4-methylcyclohexylmethyl)hydrazino)]ethyl-2-cyanopyrrolidine trifluoroacetate], the half-maximal inhibitory concentration (IC50) came out at 50.4 ± 4.59 µM.

For the compound `CC1CCC(NNCC(=O)N2CCCC2C#N)CC1` (centres unmarked) [Compound No. 37, 1-[1-Oxo-2-(4-methylcyclohexyl)hydrazino]ethyl-2-cyanopyrrolidine trifluoroacetate], the IC50 is 28.3 ± 4.6 µM.

On to `N#CC1CSCN1C(=O)CN(NC(=O)NCCc1ccccn1)C(=O)NCCc1ccccn1` (centres unmarked) [Compound No. 46, 3-[1-Oxo-2-(1,2-bis-(2-(2-pyridyl)ethylaminocarbonyl)hydrazino)]ethyl-4-cyano thiazolidine bis trifluoroacetate], for which the IC50 turned out to be 78.6 ± 4.58 µM.

In the case of `N#CC1CSCN1C(=O)CN(N)C(=O)N1CCOCC1` (centres unmarked) [Compound No. 43, 3-[1-Oxo-2-(1-(4-morpholinocarbonyl) hydrazino)ethyl]-4-cyanothiazolidine trifluoroacetate], the IC50 came to 38.2 ± 2.56 µM.

Turning to `N#CC1CSCN1C(=O)CN(N)C1CCC(NS(=O)(=O)c2ccc(Cl)cc2)CC1` (centres unmarked) [Compound No. 82], the IC50 stood at 0.66 ± 0.1 µM.

`COC(=O)NN(CC(=O)N1CSCC1C#N)C1CCN(CC(=O)Nc2ccc(Cl)cn2)CC1` (centres unmarked) [compound 133, 3-[1-oxo-2-(1-(1-(2-oxo-2-(5-chloropyridin-2-yl)aminoethyl)piperidine-4-yl)-2-methoxycarbonyl)hydrazino]ethyl-4-cyanothiazolidine, trihydrochloride]: the IC50 was found to be 40.4 ± 6.4 µM.

Take `N#CC1CCCN1C(=O)CN(N)C1CCCC1` (centres unmarked) [Compound No. 18, 1-[1-Oxo-2-((1-Cyclopentyl)-hydrazino)]ethyl-2-cyano pyrrolidine trifluoroacetate]: the IC50 is 32.1 ± 1.65 µM.

Turning to `N#CC1CCCN1C(=O)CN(N)C1CCCCC1` (centres unmarked) [Compound No. 20, 1-[1-Oxo-2-((1-Cyclohexyl)-hydrazino)]ethyl-2-cyano pyrrolidine trifluoroacetate], the IC50 was 33.7 ± 0.99 µM.

`CCCC1CCC(N(N)CC(=O)N2CSCC2C#N)CC1` (centres unmarked) [Compound No. 60, 3-[1-Oxo-2-(1-(4-npropylcyclohexyl) hydrazino)]ethyl-4-cyanothiazolidine trifluoro acetate]: the IC50 was 0.69 ± 0.03 µM.

With `N#CC1CCCN1CC(=O)NN(CC(=O)N1CCCC1C#N)C1CCCCC1` (centres unmarked) [Compound No. 45, 1-[1-Oxo-2-[(1-cyclohexyl)-2-(2-cyano-1-pyrrolidinoacetyl)]hydrazino]ethyl-2-cyanopyrrolidine trifluoroacetate], the IC50 was 44 ± 1.92 µM.

`CCNN(CC(=O)N1CSCC1C#N)C1CCC(C)CC1` (centres unmarked) [Compound No. 42, 3-[1-Oxo-2-(1-(4-methylcyclohexyl)-2-ethyl)hydrazino]ethyl-4-cyanothiazolidine trifluoroacetate]: the IC50 is 0.53 ± 0.09 µM.

For the compound `N#CC1CCCN1C(=O)CNN` (centres unmarked) [Compound No. 4, 1-[1-Oxo-2-(1-hydrazino)]ethyl-2-cyano pyrrolidine trifluoroacetate], the IC50 is 88.6 ± 18.1 µM.

Turning to `CN(CC(=O)N1CSCC1C#N)NC1CCN(Cc2cccnc2)CC1` (centres unmarked) [Compound No. 59, 3-[1-Oxo-2-[1-methyl-2-(1-(3-pyridinylmethyl)-piperidin-4-yl)]hydrazino]ethyl-4-cyanothiazolidine tris trifluoroacetate], the IC50 was determined as 9.27 ± 0.42 µM.

On to `N#Cc1ccc(NC(=O)CNC2CCC(N(N)CC(=O)N3CSCC3C#N)CC2)cc1` (centres unmarked) [Compound No. 112, 3-[1-oxo-2-[1-(4-(2-oxo-2-(4-cyanophenyl)aminoethyl)aminocyclohex-1-yl)]hydrazino]ethyl-4-cyanothiazolidine bis-trifluoroacetate], for which the IC50 worked out at 1.47 ± 0.07 µM.

`N#CC1CCCN1C(=O)CN(N)C1CCCCCC1` (centres unmarked) [Compound No. 30, 1-[1-Oxo-2-((1-Cycloheptyl)-hydrazino)]ethyl-2-cyano pyrrolidine trifluoroacetate]: the IC50 stood at 35.1 ± 2.66 µM.

Regarding `CS(=O)(=O)NC1CCC(N(N)CC(=O)N2CSCC2C#N)CC1` (centres unmarked) [Compound No. 78, 3-[1-Oxo-2-(1-(1-methanesulphonylamino-4-cyclohexyl) hydrazino)]ethyl-4-cyanothiazolidine trifluoroacetate], the IC50 came to 0.25 ± 0.02 µM.

`N#CC1CSCN1C(=O)CN(N)C1CCNCC1` (centres unmarked) [Compound No. 72, 3-[1-Oxo-2-(1-(4-piperidinyl) hydrazino)]ethyl-4-cyanothiazolidine bis trifluoroacetate]: the IC50 came to 12.1 ± 0.13 µM.

As to `N#CC1CSCN1C(=O)CN(N)C1CCCCCC1` (centres unmarked) [Compound No. 28, 3-[1-Oxo-2-((1-Cycloheptyl)-hydrazino)] ethyl-4-cyano thiazolidine trifluoroacetate], the IC50 stood at 2.29 ± 0.11 µM.

As to `CC(C)(C)C1CCC(N(N)CC(=O)N2CSCC2C#N)CC1` (centres unmarked) [Compound No. 47, 3-[1-Oxo-2-(1-(4-tert-butylcyclohexyl)hydrazino)]ethyl-4-cyanothiazolidine trifluoro acetate], the IC50 turned out to be 1.14 ± 0.09 µM.

As for `N#CC1CSCN1C(=O)CN(N)C1CCN(CC(=O)NC2CC2)CC1` (single isomer, unassigned) [compound 146, 3-[1-oxo-2-(1-(1-(2-cyclopropyl-1-yl)aminoethyl)piperidin-4-yl)) hydrazino]ethyl-4-cyano thiazolidine, dihydrochloride], the IC50 turned out to be 217 ± 9.07 µM.

Take `CCC(C)N(N)CC(=O)N1CCCC1C#N` (centres unmarked) [Compound No. 22, 1-[1-Oxo-2-((1-methylpropyl)hydrazino)]ethyl-2-cyano pyrrolidine trifluoroacetate]: the IC50 was 76.5 ± 7.51 µM.

Values taken from patent US20040106802A1, “Novel compounds and therapeutic uses thereof” (TORRENT PHARMACEUTICALS LTD., priority 2002, published 2004).
